Test results reported in patent US20090181904A1, “METHOD FOR REGULATING NUTRIENT ABSORPTION WITH GINSENOSIDES” (priority 2005, published 2009).

Test system: Caco2 cells
Assay: Folate uptake assay (3H-folate uptake in Caco2 cells)
Assay type: cell-based, human
Conditions: compound 0.1 μM
Method: The Caco2 cells were subjected to folate uptake test in a manner similar to that described in the glucose uptake assay in Example 1 above. In the folate uptake test, the Caco2 cells were pretreated with the culture medium containing 5% FBS and purified ginsenosides at a concentration of […] for 2 days before the cells were cultured in a folate uptake buffer (Hank's balanced salt solution, supplemented with 0.14 g/L CaCl2, 0.1 g/L MgCl2, and 0.1 g/L MgSO4, pH 6.0) for 1 hour. The buffer was then aspirated, and uptake was initiated by adding 0.2 mL of fresh folate uptake buffer containing 2 μCi/mL radioactive folate (3,5,7,9-^3H-folic acid, 25 mCi/mmol, ARC) and cold, unlabeled folate giving a final folate concentration of 5 μM. Folate uptake was terminated by removing the uptake buffer at designated time intervals. The cells were then washed three times with ice-cold PBS and lysed by adding 0.2 mL of 0.2 N NaOH, followed by incubating at 65° C. for 20 min. Intracellular uptake of ^3H-folate was determined by transferring 20 μL of the cell lysate to the filter-bottomed UniFilter plates (Perkin-Elmer) and counting as described previously in Example 1. The amount of folate accumulated in the cells was calculated and normalized to protein concentration, and uptake rate was expressed as picomoles of folate per minutes per milligram of cell protein (pmol/min/mg). Protein concentration was determined by a standard Bicinchoninic acid (BCA) protein assay as described above.

**Q.** Which “Percentage (folate uptake, control = 100)” value does the source give for `CC(C)=CCC[C@](C)(O[C@@H]1O[C@H](CO)[C@@H](O)[C@H](O)[C@H]1O)[C@H]1CC[C@]2(C)[C@@H]1[C@H](O)C[C@@H]1[C@@]3(C)CC[C@H](O)C(C)(C)[C@@H]3[C@@H](O[C@@H]3O[C@H](CO)[C@@H](O)[C@H](O)[C@H]3O)C[C@]12C` [Rg1, ginsenoside Rg1] here?
**A.** 62.64%

**Q.** What about the “folate uptake versus non-treated control (in words, FIG. 5)” value of the same molecule?
**A.** decreased

**Q.** What about the “Transport rate (folate uptake)” value (2 days pretreatment, 5 μM folate, pH 6.0) of the same molecule?
**A.** 1.0780 ± 0.1534 pmol/mg/min
